What was measured:
[1] = biological target: T1, Growth factor receptor-bound protein 2 (Homo sapiens, UniProt P62993); assay: Steady-state affinity constant for Grb2 SH2 domain binding by surface plasmon resonance
Target sequence in this assay (P62993 whole entry, looked up, the tested form may be a part): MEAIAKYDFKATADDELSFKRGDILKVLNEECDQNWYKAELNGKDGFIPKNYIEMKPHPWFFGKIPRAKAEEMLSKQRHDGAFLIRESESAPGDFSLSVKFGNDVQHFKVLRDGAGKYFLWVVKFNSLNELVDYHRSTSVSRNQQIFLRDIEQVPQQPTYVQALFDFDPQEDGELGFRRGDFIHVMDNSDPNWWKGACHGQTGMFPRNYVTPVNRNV

[2] = biological target: T1, Growth factor receptor-bound protein 2; assay: Inhibition of Grb2 SH2 domain binding in ELISA
Target sequence in this assay (P62993 whole entry, the tested form may be a part): as the sequence (P62993 whole entry, looked up, the tested form may be a part) above

| Compound | Keq [1] [µM] | IC50 [2] [nM] |
| --- | --- | --- |
| NC(=O)C[C@H](NC(=O)C1(NC(=O)[C@H](Cc2ccc(C(O)(C(=O)O)C(=O)O)cc2)NC(=O)C(=O)O)CCCCC1)C(=O)NCCCc1cccc2ccccc12 | 0.27 | – |
| CC(=O)N[C@@H](Cc1ccc(OP(=O)(O)O)cc1)C(=O)NC1(C(=O)N[C@@H](CC(N)=O)C(=O)NCCCc2cccc3ccccc23)CCCCC1 | 0.24 | 47 |
| NC(=O)C[C@H](NC(=O)C1(NC(=O)[C@H](Cc2ccc(CC(=O)O)cc2)NC(=O)C(=O)O)CCCCC1)C(=O)NCCCc1cccc2ccccc12 | 6.11 | – |
| NC(=O)C[C@H](NC(=O)C1(NC(=O)[C@H](Cc2ccc(C(O)C(=O)O)cc2)NC(=O)C(=O)O)CCCCC1)C(=O)NCCCc1cccc2ccccc12 (stereo partly specified) | 1.54 | – |
| NC(=O)C[C@H](NC(=O)C1(NC(=O)[C@H](Cc2ccc(C(C(=O)O)C(=O)O)cc2)NC(=O)C(=O)O)CCCCC1)C(=O)NCCCc1cccc2ccccc12 | 0.149 | – |
